The target of series [1] is T1, thrombin (Homo sapiens, UniProt P00734).
T1 construct: purchased Haematologic Technologies Inc
Nature of the series: Thrombin amidolytic assay (FIGS. 1 to 3): neutralisation of TRI 50c inhibition of thrombin. The series is classed as biochemical. To be noted: for neutralising the effect of TRI 50c (thrombin activity restored): added after 100 nM TRI 50c; for TRI 50c neutralising activity: FIG. 2, cholesterol linoleic acid esters and free linoleic acids, stereoisomers; for neutralising ability against TRI 50c: FIG. 3, over 30 minutes. On the procedure: Peptide boronate inhibitors were synthesised by Trigen Limited. Thrombin was obtained from Haematologic Technologies Inc. Chromogenic substrate was obtained from Quadratech. Linoleic acid analogues were obtained from Cayman Chemicals USA. Buffer reagents were obtained from Merck.
Peptide boronate inhibitor of thrombin (TRI 50c, 100 nM) was incubated with thrombin (33.3 ng/ml) in assay buffer (100 mM sodium phosphate, 200 mM NaCl, 0.5% PEG 6000 and 0.02% sodium azide, pH 7.5) for 5 minutes at 37° C. Test compounds were then added and incubated for various amounts of time prior to the addition of S2238 chromogenic substrate (5 uM). The reaction was followed at […] and 37° C. using a Thermomax kinetic plate reader (Molecular Devices Corporation). Results of the assay are expressed as percentage activities of thrombin relative to that seen in the absence of inhibitor or antidote.

The subject of series [2] is thrombin. Nature of the series: IC50 values: percentage reversal of TRI 50c inhibition of thrombin by hydroxy fatty acid. Type of series: biochemical. To be noted: thrombin 33.3 ng/ml, TRI 50c 300 nM final, 30 minutes at 37° C., S2238. The procedure:
50 μl thrombin (33.3 ng/ml in assay buffer) and 20 μl TRI 50c (300 nM final) were added to 10 μl assay buffer (100 mM Na orthophosphate (80% Na2HPO4 and 20% NaH2PO4), 200 mM NaCl, 0.5% PEG 6000, 0.02% Na azide, pH 7.5) and incubated for 5 minutes at 37° C. After the incubation period 100 μl of hydroxy fatty acid was added and further incubated for 30 minutes at 37° C. […] Results were expressed as percentage reversal of TRI 50c inhibition.

Series [3] can be described thus: Assay for deboronation (LCMS of TGN 255/9(S)-HODE mixture). Particulars: TGN 255 6.7 mg/ml, 9(S)-HODE 0.01 mg/ml, 37° C. 30 mins, then room temperature overnight; uv chromatogram and mass. On the procedure:
This Example relates to a method for detecting the amount of deboronation of a product, TRI 50, in the presence of 9-HODE. A proposed mechanism for the degradation of TRI 50 is shown below.
The thrombin buffer was made up of 100 mM NaOphosphate [80% Na2HPO4 (11.36 g/l anhydrous)+20% NaH2PO4 (2.4 g/l anhydrous)], 200 mM NaCl (11.688 g/l), 0.5% PEG 6000 (5 g/l), 0.02% Na azide (0.2 g/l), pH 7.5.
TGN 255 (20 mg) was dissolved in DMSO (1.9 ml). To this was added thrombin buffer (0.8 ml), followed by 9(S)-HODE (supplied by Cayman Chemical) in thrombin buffer (0.3 ml, 337 uM). The solution was incubated at 37° C. for 30 mins.
Samples of TGN 255 (14 mg/ml in methanol) and Impurity I (5.6 mg/ml in methanol) were prepared as standards. The 9(S)-HODE assay sample was allowed to stand at room temperature overnight and analysed the following day.

The nature of series [4]: Neutralisation by cholesteryl linoleate hydroperoxide (residual TRI-50b concentration). The procedure: Cholesteryl linoleate hydroperoxide (44 μM) was incubated with TRI-50b in the range 0 to 4.9 mM. Samples were taken at timed intervals and the residual TRI-50b concentration was determined by Method C (Materials and Methods).

As for “9,13- hydroxy cholesterol linoleic acid ester [9/13-CLOH]”, the “neutralising the effect of TRI 50c (thrombin activity restored)” value (“neutralising the effect of TRI 50c” for short) on thrombin [1] (FIG. 1) was “effective in neutralising the effect of TRI 50c”.
As a reminder, the IC50 is the concentration at which inhibition is half-maximal. With `CC/C=C\C/C=C\C=C\[C@@H](O)CCCCCCCC(=O)O` [9(S)-HOTRE], the IC50 with thrombin [2] was more than 30 µM.
With `CCCCC/C=C\C/C=C\CC(O)C(O)C/C=C\CCCC(=O)O` (racemic) [(+/−)8,9-DIHETRE], the concentration for half-maximal inhibition (IC50) in the series with thrombin [2] is more than 30 µM.
Still for that read-out and setting: then `CCCCC/C=C\C=C\C(O)CCCCCCCCCC(=O)O` (racemic) [(+/−)11-HEDE], with more than 30 µM; and `CCCCC/C=C\C/C=C\C=C\[C@@H](O)CCCCCCC(=O)O` [8(S)-HETRE, 8(S)-hydroxy-9E, 11Z, 14Z-eicosatrienoic acid], with 16 µM.
Turning to `CCCCC/C=C\C=C\[C@H](CCCCCCCC(=O)O)OO` [9(S)-HpODE, 9-(S)-hydroperoxy-10E,12Z-octadecadienoic acid], the IC50 in the series with thrombin [2] is more than 30 µM.
On to `CCCCC/C=C\C=C\[C@@H](O)CCCCCCCC(=O)OC1CC[C@@]2(C)C(=CCC3C4CCC(C(C)CCCC(C)C)[C@@]4(C)CCC32)C1` (stereo partly drawn) [9(S)-HODE cholesteryl ester], for which, on thrombin [1], the “TRI 50c neutralising activity” value is on record as “particularly good” and the “neutralising ability against TRI 50c” value is “very good”. For the same compound, the IC50 with thrombin [2] was 4.4 µM.
Regarding `CCCCCC=CC=CC(O)CCCCCCCC(=O)O[C@H]1CC[C@@]2(C)C(=CC[C@H]3[C@@H]4CC[C@H]([C@H](C)CCCC(C)C)[C@@]4(C)CC[C@@H]32)C1` (stereo partly shown) [9-CLOH, 9-hydroxy cholesterol linoleic acid ester], the “neutralising the effect of TRI 50c” value on thrombin [1] (FIG. 1) is “effective in neutralising the effect of TRI 50c”.
For the compound `COC(=O)[C@H]1CC2CCC1[C@@H](O)C2` (stereo in doubt) [Methyl 6-hydroxybicyclo[2.2.2]octane-2-carboxylate, reference compound], the 50% inhibitory concentration (IC50) in the series with thrombin [2] is more than 30 µM.
Regarding `CCCCC[C@@H](/C=C/C=C\CCCCCCCC(=O)O)OO` [13(S)-HpODE, 13(S)-hydroperoxy-octadecadienoic acid], at thrombin [1], the “TRI 50c neutralising activity” value is “particularly good”.
Regarding `COCCC[C@H](NC(=O)[C@@H]1CCCN1C(=O)[C@@H](Cc1ccccc1)NC(=O)OCc1ccccc1)B(O)O` [TRI 50c, Cbz-(R)-Phe-(S)-Pro-(R)-Mpg-B(OH)2, reference compound], the “thrombin activity as compared with the control (no TRI 50c present)” value at thrombin [1] (FIG. 1, addition of 100 nM TRI 50c, thrombin 33.3 ng/ml, S2238 substrate) is “approximately 50%”.
In the case of `CCCCC/C=C\C=C\[C@H](O)CCCCCCCC(=O)O` [9(R)-HODE], the IC50 in the series on thrombin [2] is more than 30 µM.
For `CCCCC/C=C\C/C=C\C=C\C(O)C/C=C\CCCC(=O)O` (racemic) [(+/−)8-HETE], the IC50 in the series on thrombin [2] is more than 30 µM.
Turning to `CC/C=C\C/C=C\C/C=C\C=C\[C@@H](O)C/C=C\CCCC(=O)O` [8(S)-HEPE, 8(S)-hydroxy-5Z, 9E, 11Z, 14Z, 17Z-eicosapentaenoic acid], in the series with thrombin [2], the IC50 was 14 µM.
For the compound `CCCCC/C=C\C=C\[C@@H](O)CCCCCCCC(=O)O` [9(S)-HODE, 9(S)-hydroxy-10E,12Z-octadecadienoic acid], on thrombin [1], the “TRI 50c neutralising activity” value is recorded as “particularly good” and the “neutralising ability against TRI 50c” value was “particularly good effect”. Also, in the series with thrombin [2], the IC50 was determined as 12 µM. Also, the “deboronation/degradation of TGN 255 to Impurity I” value in series [3] was “degradation has occurred”.
With `CC1(C)[C@@]2(C)CC[C@]1(C)[C@H](CC(=O)O)[C@H]2O` [(−)-Isoborneolacetic Acid, reference compound], the IC50 in the series with thrombin [2] is more than 30 µM.
“cholesterol hydroperoxylinoleic acid ester [CLOOH]”: the “neutralising the effect of TRI 50c” value on thrombin [1] (FIG. 1) was “effective in neutralising the effect of TRI 50c”. For the same compound, at thrombin [1], the “TRI 50c neutralising activity” value was “particularly good”. Further, the equivalence of neutralisation entry in series [4] (44 μM cholesteryl linoleate hydroperoxide mixed with TRI-50b) is given as “approximately 1 mole/mole”. Further, the “rate of neutralisation of TRI-50b” value in series [4] (44 μM cholesteryl linoleate hydroperoxide, TRI-50b 0 to 4.9 mM) is recorded as “high rate of neutralisation”.
Take `CCCCC/C=C\C/C=C\C/C=C\C=C\C(O)CCCC(=O)O` (racemic) [(+/−)5-HETE]: in the series on thrombin [2], the half-maximal inhibitory concentration (IC50) is more than 30 µM.
On to `CCCCC/C=C\C/C=C\C/C=C\C=C\[C@H](CCCC(=O)O)OO` [5(S)-HPETE], for which the 50% inhibitory concentration (IC50) in the series with thrombin [2] amounted to 25 µM.
Same read-out and setting: the result for `C[C@H]1CCC/C=C/C2C[C@H](O)CC2[C@H](O)/C=C/C(=O)O1` (single isomer, unassigned; (+)) [(+)-Brefeldin A, reference compound] reads more than 30 µM.

Values taken from patent US20100022646A1, “METHOD OF NEUTRALISING ORGANOBORONATES WITH ACIDS” (priority 2004, published 2010).
